Test results taken from patent publication US10202360B2 (CELGENE QUANTICEL RESEARCH, INC., priority 2016, dated 2019).

What follows are molecules tested against CREBBP (Homo sapiens (Human), UniProt Q92793) (assay: In vitro enzyme inhibition assay - CREBBP inhibition (AlphaScreen, biotinylated H4-tetraacetyl peptide)). Details: Table 28; AlphaScreen, H4-tetraacetyl peptide.
Format: binding
Summary of the method: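 His-tagged CREBBP expressed in E. coli (50 nM final) incubated with biotinylated H4K5/8/12/16(Ac) peptide (20 nM final) in HEPES pH 7.3 buffer, 0.4% DMSO, 20 min at room temperature.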

Sequence of CREBBP (Q92793 1081-1197): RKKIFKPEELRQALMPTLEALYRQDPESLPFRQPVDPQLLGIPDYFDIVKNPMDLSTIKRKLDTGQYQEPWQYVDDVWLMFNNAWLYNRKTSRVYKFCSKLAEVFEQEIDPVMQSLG

| SMILES | IC50 |
| --- | --- |
| CCS(=O)(=O)Nc1cc(-c2cc(C)c(=O)n(C)c2)nc(-c2ccccc2)n1 [Example 191, Ethanesulfonic acid [6-(1,5-dimethyl-6-oxo-1,6-dihydro-pyridin-3-yl)-2-phenyl-pyrimidin-4-yl]-amide] | 500 to 5000 nM |
| CCS(=O)(=O)Nc1cc(-c2ccc(=O)n(C)c2)nc(-c2ccc(C)cc2OC)n1 [Example 194, Ethanesulfonic acid [2-(2-methoxy-4-methyl-phenyl)-6-(1-methyl-6-oxo-1,6-dihydro-pyridin-3-yl)-pyrimidin-4-yl]-amide] | 500 to 5000 nM |
| CCS(=O)(=O)Nc1cc(-c2ccc(=O)n(C)c2)nc(-c2cc(C)ccc2OC)n1 [Example 195, Ethanesulfonic acid [2-(2-methoxy-5-methyl-phenyl)-6-(1-methyl-6-oxo-1,6-dihydro-pyridin-3-yl)-pyrimidin-4-yl]-amide] | 500 to 5000 nM |
| CCCS(=O)(=O)Nc1cc(-c2ccc(=O)n(C)c2)nc(-c2ccccc2OC)n1 [Example 196, Propane-1-sulfonic acid [2-(2-methoxy-phenyl)-6-(1-methyl-6-oxo-1,6-dihydro-pyridin-3-yl)-pyrimidin-4-yl]-amide] | 500 to 5000 nM |
| CCS(=O)(=O)Nc1cc(-c2ccc(=O)n(C)c2)nc(-c2ccccc2C#N)n1 [Example 198, Ethanesulfonic acid [2-(2-cyano-phenyl)-6-(1-methyl-6-oxo-1,6-dihydro-pyridin-3-yl)-pyrimidin-4-yl]-amide] | < 500 nM |
| CCS(=O)(=O)Nc1cc(-c2ccc(=O)n(C)c2)nc(-c2ccccc2OC)n1 [Example 199, Ethanesulfonic acid [2-(2-methoxy-phenyl)-6-(1-methyl-6-oxo-1,6-dihydro-pyridin-3-yl)-pyrimidin-4-yl]-amide] | 500 to 5000 nM |
| CCS(=O)(=O)Nc1nc(OC(C)C)nc(-c2ccc(=O)n(C)c2)n1 [Example 200, Ethanesulfonic acid [4-isopropoxy-6-(1-methyl-6-oxo-1,6-dihydro-pyridin-3-yl)-[1,3,5]triazin-2-yl]-amide] | 500 to 5000 nM |
| CCCS(=O)(=O)Nc1nc(OC(C)C)nc(-c2ccc(=O)n(C)c2)n1 [Example 201, Propane-1-sulfonic acid [4-isopropoxy-6-(1-methyl-6-oxo-1,6-dihydro-pyridin-3-yl)-[1,3,5]triazin-2-yl]-amide] | 500 to 5000 nM |
| CC[C@H](C)S(=O)(=O)Nc1cc(-c2ccc(=O)n(C)c2)nc(Oc2c(C)cccc2F)n1 [Example 202, (S)-N-(2-(2-fluoro-6-methylphenoxy)-6-(1-methyl-6-oxo-1,6-dihydropyridin-3-yl)pyrimidin-4-yl)butane-2-sulfonamide] | < 500 nM |
| CC[C@@H](C)S(=O)(=O)Nc1cc(-c2ccc(=O)n(C)c2)nc(Oc2c(C)cccc2F)n1 [Example 203, (R)-N-(2-(2-fluoro-6-methylphenoxy)-6-(1-methyl-6-oxo-1,6-dihydropyridin-3-yl)pyrimidin-4-yl)butane-2-sulfonamide] | < 500 nM |
| CC[C@@H](C)S(=O)(=O)Nc1cc(-c2ccc(=O)n(C)c2)nc(Oc2c(C)cccc2Cl)n1 [Example 204, Butane-(2R)-sulfonic acid [2-(2-chloro-6-methyl-phenoxy)-6-(1-methyl-6-oxo-1,6-dihydro-pyridin-3-yl)-pyrimidin-4-yl]-amide] | < 500 nM |
| CC[C@H](C)S(=O)(=O)Nc1cc(-c2ccc(=O)n(C)c2)nc(Oc2c(C)cccc2Cl)n1 [Example 205, Butane-(2S)-sulfonic acid [2-(2-chloro-6-mehtyl-phenoxy)-6-(1-methyl-6-oxo-1,6-dihydro-pyridin-3-yl)-pyrimidin-4-yl]-amide] | < 500 nM |
| CC[C@H](C)S(=O)(=O)Nc1cc(-c2ccc(=O)n(C)c2)nc(Oc2c(F)cccc2Cl)n1 [Example 206, Butane-(2S)-sulfonic acid [2-(2-chloro-6-fluoro-phenoxy)-6-(1-methyl-6-oxo-1,6-dihydro-pyridin-3-yl)-pyrimidin-4-yl]-amide] | < 500 nM |
| CC[C@@H](C)S(=O)(=O)Nc1cc(-c2ccc(=O)n(C)c2)nc(Oc2c(F)cccc2Cl)n1 [Example 207, Butane-(2R)-sulfonic acid [2-(2-chloro-6-fluoro-phenoxy)-6-(1-methyl-6-oxo-1,6-dihydro-pyridin-3-yl)-pyrimidin-4-yl]-amide] | < 500 nM |
| CC[C@@H](C)S(=O)(=O)Nc1cc(-c2ccc(=O)n(C)c2)nc(Oc2c(F)cccc2OC)n1 [Example 208, Butane-(2R)-sulfonic acid [2-(2-fluoro-6-methoxy-phenoxy)-6-(1-methyl-6-oxo-1,6-dihydro-pyridin-3-yl)-pyrimidin-4-yl]-amide] | < 500 nM |
| CC[C@H](C)S(=O)(=O)Nc1cc(-c2ccc(=O)n(C)c2)nc(Oc2c(F)cccc2OC)n1 [Example 209, Butane-(2S)-sulfonic acid [2-(2-fluoro-6-methoxy-phenoxy)-6-(1-methyl-6-oxo-1,6-dihydro-pyridin-3-yl)-pyrimidin-4-yl]-amide] | < 500 nM |
| CC[C@@H](C)S(=O)(=O)Nc1cc(-c2ccc(=O)n(C)c2)nc(Oc2c(F)cccc2C2CC2)n1 [Example 210, Butane-(2R)-sulfonic acid [2-(2-cyclopropyl-6-fluoro-phenoxy)-6-(1-methyl-6-oxo-1,6-dihydro-pyridin-3-yl)-pyrimidin-4-yl]-amide] | < 500 nM |
| CC[C@H](C)S(=O)(=O)Nc1cc(-c2ccc(=O)n(C)c2)nc(Oc2c(C)cccc2C2CC2)n1 [Example 211, Butane-(2S)-sulfonic acid [2-(2-cylcopropyl-6-methyl-phenoxy)-6-(1-methyl-6-oxo-1,6-dihydro-pyridin-3-yl)-pyrimidin-4-yl]-amide] | < 500 nM |

More lines, now with the values ahead:

| IC50 | SMILES |
| --- | --- |
| < 500 nM | CCS(=O)(=O)Nc1nc(Oc2c(C)cccc2Cl)nc(-c2ccc(=O)n(C)c2)n1 [Example 179, Ethanesulfonic acid [4-(2-chloro-6-methyl-phenxoy)-6-(1-methyl-6-oxo-1,6-dihydro-pyridin-3-yl)-[1,3,5]triazin-2-yl]-amide] |
| < 500 nM | Cc1cccc(Cl)c1Oc1nc(NS(=O)(=O)C(C)C)nc(-c2ccc(=O)n(C)c2)n1 [Example 180, Propane-2-sulfonic acid [4-(2-chloro-6-methyl-phenoxy)-6-(1-methyl-6-oxo-1,6-dihydro-pyridin-3-yl)-[1,3,5]triazin-2-yl]-amide] |
| < 500 nM | CCCS(=O)(=O)Nc1nc(Oc2c(F)cccc2Cl)nc(-c2ccc(=O)n(C)c2)n1 [Example 181, Propane-1-sulfonic acid [4-(2-chloro-6-fluoro-phenoxy)-6-(1-methyl-6-oxo-1,6-dihydro-pyridin-3-yl)-[1,3,5]triazin-2-yl]-amide] |
| < 500 nM | CCCCS(=O)(=O)Nc1nc(Oc2c(F)cccc2Cl)nc(-c2ccc(=O)n(C)c2)n1 [Example 182, Butane-1-sulfonic acid [4-(2-chloro-6-fluoro-phenoxy)-6-(1-methyl-6-oxo-1,6-dihydro-pyridin-3-yl)-[1,3,5]triazin-2-yl]-amide] |
| < 500 nM | Cc1cccc(F)c1Oc1nc(NS(=O)(=O)CC(C)C)nc(-c2cc(C)c(=O)n(C)c2)n1 [Example 183, 2-Methyl-propane-1-sulfonic acid [4-(1,5-dimethyl-6-oxo-1,6-dihydro-pyridin-3-yl)-6-(2-fluoro-6-methyl-phenoxy)-[1,3,5]triazin-2-yl]-amide] |
| < 500 nM | Cc1cccc(F)c1Oc1nc(NS(=O)(=O)C2CCCC2)nc(-c2cc(C)c(=O)n(C)c2)n1 [Example 184, Cyclopentanesulfonic acid [4-(1,5-dimethyl-6-oxo-1,6-dihydro-pyridin-3-yl)-6-(2-fluoro-6-methyl-phenoxy)-[1,3,5]triazin-2-yl]-amide] |
| < 500 nM | CCCCCS(=O)(=O)Nc1nc(Oc2c(C)cccc2F)nc(-c2cc(C)c(=O)n(C)c2)n1 [Example 185, Pentane-1-sulfonic acid [4-(1,5-dimethyl-6-oxo-1,6-dihydro-pyridin-3-yl)-6-(2-fluoro-6-methyl-phenoxy)-[1,3,5]triazin-2-yl]-amide] |
| < 500 nM | Cc1cccc(F)c1Oc1nc(NS(=O)(=O)CCC(C)C)nc(-c2cc(C)c(=O)n(C)c2)n1 [Example 186, 3-Methyl-butane-1-sulfonic acid [4-(1,5-dimethyl-6-oxo-1,6-dihydro-pyridin-3-yl)-6-(2-fluoro-6-methyl-phenoxy)-[1,3,5]triazin-2-yl]-amide] |
| < 500 nM | CCCCS(=O)(=O)Nc1nc(Oc2c(C)cccc2Cl)nc(-c2cc(C)c(=O)n(C)c2)n1 [Example 188, Butane-1-sulfonic acid [4-(2-chloro-6-methyl-phenoxy)-6-(1,5-dimethyl-6-oxo-1,6-dihydro-pyridin-3-yl)-[1,3,5]triazin-2-yl]-amide] |
| < 500 nM | CCCCS(=O)(=O)Nc1nc(Oc2c(F)cccc2F)nc(-c2cc(C)c(=O)n(C)c2)n1 [Example 189, Butane-1-sulfonic acid [4-(2,6-difluoro-phenoxy)-6-(1,5-dimethyl-6-oxo-1,6-dihydro-pyridin-3-yl)-[1,3,5]triazin-2-yl]-amide] |
| < 500 nM | CCCCS(=O)(=O)Nc1nc(Oc2c(F)cccc2Cl)nc(-c2cc(C)c(=O)n(C)c2)n1 [Example 190, Butane-1-sulfonic acid [4-(2-chloro-6-fluoro-phenoxy)-6-(1,5-dimethyl-6-oxo-1,6-dihydro-pyridin-3-yl)-[1,3,5]triazin-2-yl]-amide] |
| < 500 nM | CCS(=O)(=O)Nc1cc(-c2cc(C)c(=O)n(C)c2)nc(-c2ccccc2C)n1 [Example 192, Ethanesulfonic acid [6-(1,5-dimethyl-6-oxo-1,6-dihydro-pyridin-3-yl)-2-o-tolyl-pyrimidin-4-yl]-amide] |
| < 500 nM | CCS(=O)(=O)Nc1cc(-c2cc(C)c(=O)n(C)c2)nc(-c2ccccc2OC)n1 [Example 193, Ethanesulfonic acid [6-(1,5-dimethyl-6-oxo-1,6-dihydro-pyridin-3-yl)-2-(2-methoxy-phenyl)-pyrimidin-4-yl]-amide] |
| < 500 nM | CCCCS(=O)(=O)Nc1cc(-c2ccc(=O)n(C)c2)nc(-c2ccccc2OC)n1 [Example 197, Butane-1-sulfonic acid [2-(2-methoxy-phenyl)-6-(1-methyl-6-oxo-1,6-dihydro-pyridin-3-yl)-pyrimidin-4-yl]-amide] |
